This is an account of results in ChEMBL document CHEMBL1201862, “PubChem BioAssay data set” (2004).

Holding throughout (assay): NCI-60 cell line screen, 48 h
Experiment [1] has as its system K562.
The subject of experiment [2] is HOP-92.
The subject of experiment [3] is MDA-MB-231.
The test system of experiment [4] is SK-MEL-28.
Experiment [5] concerns NCI-H23.
The subject of experiment [6] is CCRF-CEM.
In experiment [7] the test system is OVCAR-8.
Experiment [8] concerns 786-0.
Experiment [9] deals with HOP-62.
Experiment [10] deals with SK-MEL-5.
Experiment [11] concerns MOLT-4.
In experiment [12] the test system is HCT-116.
Experiment [13] concerns SNB-75.
For experiment [14], the system named is SF-539.
For experiment [15], the system named is UACC-257.
In experiment [16] the test system is NCI-H226.
For experiment [17], the system named is SNB-19.
In experiment [18] the test system is Malme-3M.
For experiment [19], the system named is SF-295.
Experiment [20] concerns HCT-15.

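Step 1: Grow cells in 96-well plates. Step 2: Expose to compound for 48 hours at 5 concentrations. Step 3: Interpolate endpoints linearly; if unreached, use highest concentration. Abbreviation: GI50, concentration required for 50% inhibition of growth.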 Activity calls are given as the source filed them. Rule as the data show it: active = GI50 up to about 1.1 µM and inactive = higher.

For `CC1(C)CC2(C)CC1CC2(O)c1ccccc1` (configuration not stated), the GI50 is > 100 µM (inactive) in experiment [1]; 42.7 µM (inactive) in [2]; > 100 µM (inactive) in experiment [3]; > 100 µM (inactive) in experiment [4]; > 100 µM (inactive) in [5]; > 100 µM (inactive) in experiment [6]. Further, the GI50 in [7], in experiment [8], in experiment [9], in experiment [10], in experiment [11] and in [12] was > 100 µM (inactive) throughout. Also, the GI50 in experiment [13], in experiment [14], in [15], in [16], in experiment [17] and in experiment [18] was > 100 µM (inactive) each time. In addition, in experiment [19], the GI50 is > 100 µM (inactive).

On to `Cc1cc(NC(=O)NC(=O)c2ccccc2NC(=O)CN(C)C)ccc1Oc1ncc(Br)cn1`, for which the GI50 in experiment [1] was 2 µM (inactive); in experiment [2] it was 20.3 µM (inactive); in experiment [3], 1.95 µM (inactive); in experiment [4] it was 14.9 µM (inactive); in experiment [20], 3.18 µM; in [5] it was 4.67 µM (inactive). The GI50 in experiment [6] is 2.26 µM (inactive); in experiment [7] it was 6.84 µM (inactive); in experiment [8], 3.52 µM (inactive); in [9], 2.76 µM (inactive); in experiment [10], 1.45 µM (inactive); in experiment [11], 4.95 µM (inactive). The GI50 in experiment [12] was 1.85 µM (inactive); in [13], 1.89 µM (inactive); in [14], 1.56 µM (inactive); in experiment [15], 57.5 µM (inactive); in [16], 6.76 µM (inactive); in experiment [17], 9.77 µM (inactive). Besides, the figures for the GI50 in experiment [18] and in [19] were 6.84 µM (inactive) and 0.748 µM (active), respectively.

As for `C#CCN(CC#C)C(=O)C(=O)c1c[nH]c2ccc(OC)cc12`, the GI50 is 18.6 µM (inactive) in experiment [1]; 14.2 µM (inactive) in experiment [2]; 14.9 µM (inactive) in experiment [3]; 16.1 µM (inactive) in [4]; 15.5 µM in [20]; 22.4 µM (inactive) in experiment [5]. For the same molecule, the GI50 in [6] is 19.7 µM (inactive); in experiment [7] it was 22 µM (inactive); in [8] it was 16.6 µM (inactive); in experiment [9], 16.7 µM (inactive); in experiment [10], 15.8 µM (inactive); in [11], > 10 µM (inactive). Moreover, the GI50 is 17.5 µM (inactive) in [12]; 20.2 µM (inactive) in experiment [13]; 14 µM (inactive) in [14]; 17.5 µM (inactive) in experiment [15]; 18.2 µM (inactive) in experiment [16]; 16.1 µM (inactive) in experiment [17]. For the same molecule, the GI50 was 17.2 µM (inactive) in experiment [18] and 17.5 µM (inactive) in experiment [19].

With `CCOC(=O)C(=CNc1ccc(S(N)(=O)=O)cc1)C(=O)OCC`, the GI50 was > 100 µM (inactive) in experiment [1]; > 100 µM (inactive) in experiment [2]; > 100 µM (inactive) in experiment [3]; > 100 µM (inactive) in experiment [4]; greater than 100 µM in [20]; > 100 µM (inactive) in experiment [5]. Besides, the GI50 in experiment [6], in experiment [7], in [8], in [9], in [10] and in experiment [11] was > 100 µM (inactive) throughout. The GI50 in experiment [12], in [13], in [14], in experiment [15], in [16] and in [17] was > 100 µM (inactive) each time. The GI50 in experiment [18] and in experiment [19] was > 100 µM (inactive) each time.

`CN1CCC(n2[nH]c(-c3ccccc3)c(Cc3ccccc3)c2=O)CC1` [BENZPIPERYLON]: the GI50 in experiment [1] was 42.2 µM (inactive); in [2], > 100 µM (inactive); in [3] it was > 100 µM (inactive); in [4], > 100 µM (inactive); in experiment [20], greater than 100 µM; in [5] it was > 100 µM (inactive). The GI50 was 37.9 µM (inactive) in experiment [6]; > 100 µM (inactive) in experiment [7]; > 100 µM (inactive) in experiment [8]; > 100 µM (inactive) in experiment [9]; > 100 µM (inactive) in experiment [10]; 19.5 µM (inactive) in experiment [11]. In addition, the GI50 in [12] was 75.9 µM (inactive); in [13], 29.7 µM (inactive); in experiment [14] it was 57.1 µM (inactive); in experiment [15], > 100 µM (inactive); in [16], > 100 µM (inactive); in experiment [17], > 100 µM (inactive). Besides, the GI50 in experiment [18] is 90.8 µM (inactive); in experiment [19], > 100 µM (inactive).

As to `NNC(=O)Nc1nc2ccc(NN)cc2[nH]1`, the GI50 in experiment [1] is 18.7 µM (inactive); in experiment [2], 19.7 µM (inactive); in experiment [3], 51.9 µM (inactive); in experiment [4] it was 19 µM (inactive); in experiment [20] it was 31.3 µM; in [5] it was 44.1 µM (inactive). Moreover, the GI50 is 14.6 µM (inactive) in experiment [6]; 54 µM (inactive) in [7]; 31.3 µM (inactive) in experiment [8]; 44.4 µM (inactive) in experiment [9]; 22.9 µM (inactive) in experiment [10]; 11.6 µM (inactive) in [11]. The GI50 in experiment [12] was 32.8 µM (inactive); in experiment [13], 25.6 µM (inactive); in experiment [14], 12.6 µM (inactive); in experiment [15], 31.8 µM (inactive); in experiment [16] it was 20.2 µM (inactive); in experiment [17], 58.5 µM (inactive). The GI50 is 59.6 µM (inactive) in [18] and 47.2 µM (inactive) in experiment [19].

In the case of `CCN1CCC(O)(/C=C/c2ccc(Cl)c(Cl)c2)C(C(=O)/C=C/c2ccc(Cl)c(Cl)c2)C1` (configuration not stated), the GI50 in experiment [1] is 0.324 µM (active); in experiment [2] it was 0.621 µM (active); in experiment [3] it was 0.635 µM (active); in experiment [4] it was 0.881 µM (active); in experiment [20] it was 1.89 µM; in [5], 0.255 µM (active). The GI50 in experiment [6] was 0.306 µM (active); in experiment [7], 0.745 µM (active); in experiment [8], 1.41 µM (inactive); in experiment [9] it was 0.951 µM (active); in [10] it was 0.834 µM (active); in [11], 0.243 µM (active). Besides, the GI50 was 0.514 µM (active) in [12]; 1.01 µM (active) in experiment [13]; 1.95 µM (inactive) in experiment [14]; 0.986 µM (active) in experiment [15]; 1.84 µM (inactive) in experiment [16]; 1.89 µM (inactive) in [17]. For the same molecule, the GI50 was 1.05 µM (active) in experiment [18] and 0.713 µM (active) in experiment [19].

Turning to `COC(=O)c1ccccc1/C=C1\Cc2ccc3c(c2C1=O)CCC3`, the GI50 in [1] is > 100 µM (inactive); in [2], > 100 µM (inactive); in experiment [3] it was > 100 µM (inactive); in experiment [4] it was > 100 µM (inactive); in experiment [20] it was greater than 100 µM; in experiment [5], > 100 µM (inactive). Moreover, the GI50 in experiment [6], in experiment [7], in experiment [8], in experiment [9], in experiment [10] and in experiment [11] was > 100 µM (inactive) throughout. Further, the GI50 in [12], in experiment [13], in experiment [14], in experiment [15], in experiment [16] and in experiment [18] was > 100 µM (inactive) in each case. For the same molecule, the GI50 in experiment [19] is > 100 µM (inactive).

`O=[PH]1c2ccccc2Nc2ccccc21`: the GI50 in experiment [1] was 21.6 µM (inactive); in experiment [2], > 100 µM (inactive); in experiment [3], 45.9 µM (inactive); in [4] it was > 100 µM (inactive); in experiment [20] it was 37.1 µM; in [5] it was > 100 µM (inactive). The GI50 in experiment [6] is > 100 µM (inactive); in [7], > 100 µM (inactive); in [8], > 100 µM (inactive); in experiment [9], > 100 µM (inactive); in experiment [10], > 100 µM (inactive); in experiment [11], 26.2 µM (inactive). Further, the GI50 in experiment [12], in [13], in experiment [14], in [15], in [16] and in experiment [17] was > 100 µM (inactive) in each case. The GI50 was 80.2 µM (inactive) in experiment [18] and > 100 µM (inactive) in [19].

With `COc1ccc(C2CC(c3c(O)ccc4ccccc34)=NN2C(C)=O)cc1OC` (configuration not stated), the GI50 in [1] is 13.7 µM (inactive); in experiment [2] it was 27.8 µM (inactive); in [3], 18.5 µM (inactive); in experiment [4] it was 28.8 µM (inactive); in experiment [20], 30.1 µM; in [5] it was 23.4 µM (inactive). The GI50 in [6] is 12.6 µM (inactive); in experiment [7] it was 34.4 µM (inactive); in experiment [8], 33.3 µM (inactive); in experiment [9] it was 26.9 µM (inactive); in experiment [10], 21.9 µM (inactive); in experiment [11], 19.3 µM (inactive). For the same molecule, the GI50 in experiment [12] is 15.3 µM (inactive); in [13], 19.8 µM (inactive); in experiment [14], 18.7 µM (inactive); in experiment [15], 34.8 µM (inactive); in [16], 36.2 µM (inactive); in [18], 31 µM (inactive). The GI50 in experiment [19] was 37.4 µM (inactive).
